Some results are limits rather than exact numbers.

For orientation: EC50 means the concentration at which the effect is half-maximal. High values mean weaker potency, low ones greater potency.

One data set deals with T1, S1P-4 (Homo sapiens, UniProt O95977).
T1 construct: expressed in transfected cells; host or cells: HEK293 (transient, calcium phosphate); crude membranes
T1 sequence (O95977 1-384): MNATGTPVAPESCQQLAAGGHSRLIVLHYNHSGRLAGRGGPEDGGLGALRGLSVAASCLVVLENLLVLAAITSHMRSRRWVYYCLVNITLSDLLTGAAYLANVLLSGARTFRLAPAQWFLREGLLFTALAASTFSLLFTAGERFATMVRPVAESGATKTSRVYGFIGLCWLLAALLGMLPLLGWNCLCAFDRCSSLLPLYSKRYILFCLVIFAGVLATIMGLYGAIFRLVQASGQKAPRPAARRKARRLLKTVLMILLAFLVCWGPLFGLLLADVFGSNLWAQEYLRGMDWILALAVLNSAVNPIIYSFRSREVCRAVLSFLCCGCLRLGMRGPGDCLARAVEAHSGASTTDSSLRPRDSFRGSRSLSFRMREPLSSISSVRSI
The data set can be described thus: GTPγS binding assay using S1P receptor/HEK293 membrane preparations. Particulars: for EC50: GTPγS binding, transiently transfected HEK293 membranes. The class given is biochemical. From the text: (§1) The compounds of the invention have binding affinity to individual human S1P receptors as determined in following assays:
(§2) Transient Transfection of Human S1P Receptors into HEK293 Cells
(§3) S1P receptors and Gi proteins are cloned, and equal amounts of 4 cDNAs for the S1P receptor, Gi-α, Gi-β and Gi-γ are mixed and used to transfect monolayers of HEK293 cells using the calcium phosphate precipitate method (M. Wigler et al., Cell. 1977; 11; 223 and DS. Im et al., Mol. Pharmacol. 2000; 57; 753). Briefly, a DNA mixture containing 25 μg of DNA and 0.25 M CaCl is added to HEPES-buffered 2 mM Na2HPO4. Subconfluent monolayers of HEK293 cells are poisoned with 25 […], and the DNA precipitate is then applied to the cells. After 4 h, the monolayers are washed with phosphate-buffered saline and refed media (90% 1:1 Dulbecco's modified essential media (DMEM):F-12+10% fetal bovine serum). The cells are harvested 48-72 h after addition of the DNA by scraping in HME buffer (in mM: 20 HEPES, 5 MgCl2, 1 EDTA, pH 7.4) containing 10% sucrose on ice, and disrupted using a Dounce homogenizer. After centrifugation at 800×g, the supernatant is diluted with HME without sucrose and centrifuged at 100,000×g for 1 h. The resulting pellet is rehomogenized and centrifuged a second hour at 100,000×g. This crude membrane pellet is resuspended in HME with sucrose, aliquoted, and snap-frozen by immersion in liquid nitrogen. The membranes are stored at […] Protein concentration is determined spectroscopically by Bradford protein assay.
(§4) GTPγS Binding Assay Using S1P Receptor/HEK293 Membrane Preparations
(§5) GTPγS binding experiments are performed as described by D S. Im et al., Mol. Pharmacol. 2000; 57:753. Ligand-mediated GTPγS binding to G-proteins is measured in GTP binding buffer (in mM: 50 HEPES, 100 NaCl, 10 MgCl2, pH 7.5) using 25 μg of a membrane preparation from transiently transfected HEK293 cells. Ligand is added to membranes in the presence of 10 μM GDP and 0.1 nM [^35S]GTPγS (1200 Ci/mmol) and incubated at 30° C. for 30 min. Bound GTPγS is separated from unbound using the Brandel harvester (Gaithersburg, Md.) and counted with a liquid scintillation counter.
For orientation: Binding of GTPγS marks nucleotide exchange on a G protein.

In a further data set the test system is human S1P receptors. The experiment in a line: GTPγS binding assay, S1P receptors in general. The class given is biochemical.
Excerpt: as §1, §2
S1P receptors and Gi proteins are cloned, and equal amounts of 4 cDNAs for the S1P receptor, Gi-α, Gi-β and Gi-γ are mixed and used to transfect monolayers of HEK293 cells using the calcium phosphate precipitate method (M. Wigler et al., Cell. 1977; 11; 223 and DS. Im et al., Mol. Pharmacol. 2000; 57; 753). Briefly, a DNA mixture containing 25 μg of DNA and 0.25 M CaCl is added to HEPES-buffered 2 mM Na2HPO4. Subconfluent monolayers of HEK293 cells are poisoned with 25 […], and the DNA precipitate is then applied to the cells. […] Protein concentration is determined spectroscopically by Bradford protein assay. […]
GTPγS binding experiments are performed as described by D S. Im et al., Mol. Pharmacol. 2000; 57:753. Ligand-mediated GTPγS binding to G-proteins is measured in GTP binding buffer (in mM: 50 HEPES, 100 NaCl, 10 MgCl2, pH 7.5) using 25 μg of a membrane preparation from transiently transfected HEK293 cells. […] Bound GTPγS is separated from unbound using the Brandel harvester (Gaithersburg, Md.) and counted with a liquid scintillation counter.

The next data set deals with T2, S1P-1 (Homo sapiens, UniProt P21453).
T2 construct: expressed in transfected cells; host or cells: HEK293 (transient, calcium phosphate); crude membranes
T2 sequence (P21453 whole entry): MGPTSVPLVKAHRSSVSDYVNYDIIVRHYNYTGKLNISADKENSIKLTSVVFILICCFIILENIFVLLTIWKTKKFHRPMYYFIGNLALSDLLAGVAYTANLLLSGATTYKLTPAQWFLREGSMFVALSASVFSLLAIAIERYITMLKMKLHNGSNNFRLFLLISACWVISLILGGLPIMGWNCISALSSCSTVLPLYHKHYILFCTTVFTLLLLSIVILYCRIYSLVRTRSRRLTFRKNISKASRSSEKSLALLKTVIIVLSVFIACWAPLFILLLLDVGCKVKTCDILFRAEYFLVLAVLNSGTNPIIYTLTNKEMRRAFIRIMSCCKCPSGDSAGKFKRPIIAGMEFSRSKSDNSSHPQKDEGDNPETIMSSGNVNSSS
The data set can be described thus: GTPγS binding assay using S1P receptor/HEK293 membrane preparations. The class given is biochemical. How it is done: as §2
as §3, with “Briefly,” for “S1P receptors and Gi proteins are cloned, and equal amounts of 4 cDNAs for the S1P receptor, Gi-α, Gi-β and Gi-γ are mixed and used to transfect monolayers of HEK293 cells using the calcium phosphate precipitate method (M. Wigler et al., Cell. 1977; 11; 223 and DS. Im et al., Mol. Pharmacol. 2000; 57; 753). Briefly,”
as §4
(§6) Ligand-mediated GTPγS binding to G-proteins is measured in GTP binding buffer (in mM: 50 HEPES, 100 NaCl, 10 MgCl2, pH 7.5) using 25 μg of a membrane preparation from transiently transfected HEK293 cells. Ligand is added to membranes in the presence of 10 μM GDP and 0.1 nM [^35S]GTPγS (1200 Ci/mmol) and incubated at 30° C. for 30 min. Bound GTPγS is separated from unbound using the Brandel harvester (Gaithersburg, Md.) and counted with a liquid scintillation counter.

In a further data set the target is T3, S1P-5 (Homo sapiens, UniProt Q9H228).
T3 construct: expressed in transfected cells; host or cells: HEK293 (transient, calcium phosphate); crude membranes
T3 sequence (Q9H228 whole entry): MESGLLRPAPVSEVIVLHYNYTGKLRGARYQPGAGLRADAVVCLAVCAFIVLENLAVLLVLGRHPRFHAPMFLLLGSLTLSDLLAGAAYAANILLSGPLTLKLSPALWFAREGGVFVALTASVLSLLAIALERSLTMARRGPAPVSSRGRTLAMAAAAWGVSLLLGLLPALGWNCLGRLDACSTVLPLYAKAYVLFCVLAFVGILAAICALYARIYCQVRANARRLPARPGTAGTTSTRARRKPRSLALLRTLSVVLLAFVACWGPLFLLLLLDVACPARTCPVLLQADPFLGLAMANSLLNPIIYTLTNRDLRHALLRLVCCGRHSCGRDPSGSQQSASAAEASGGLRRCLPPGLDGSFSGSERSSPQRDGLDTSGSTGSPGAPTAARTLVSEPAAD
The data set is described as above. The class given is biochemical. The procedure: as §2
as §3, with “Briefly,” for “S1P receptors and Gi proteins are cloned, and equal amounts of 4 cDNAs for the S1P receptor, Gi-α, Gi-β and Gi-γ are mixed and used to transfect monolayers of HEK293 cells using the calcium phosphate precipitate method (M. Wigler et al., Cell. 1977; 11; 223 and DS. Im et al., Mol. Pharmacol. 2000; 57; 753). Briefly,”
as §4, §6

The target in the next data set is T4, S1P-3 (Homo sapiens, UniProt Q99500).
T4 construct: expressed in transfected cells; host or cells: HEK293 (transient, calcium phosphate); crude membranes
T4 sequence (Q99500 whole entry): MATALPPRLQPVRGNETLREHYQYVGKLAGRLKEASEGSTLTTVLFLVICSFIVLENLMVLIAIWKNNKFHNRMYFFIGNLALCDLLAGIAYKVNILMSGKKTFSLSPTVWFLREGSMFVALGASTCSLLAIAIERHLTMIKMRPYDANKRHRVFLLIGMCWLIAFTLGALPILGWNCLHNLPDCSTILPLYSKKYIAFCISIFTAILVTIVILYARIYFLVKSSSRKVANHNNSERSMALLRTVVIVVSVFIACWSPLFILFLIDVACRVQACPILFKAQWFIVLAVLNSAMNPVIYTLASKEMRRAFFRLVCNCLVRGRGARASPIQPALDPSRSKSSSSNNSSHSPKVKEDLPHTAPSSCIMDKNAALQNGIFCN
The description is as above. The class given is biochemical. The procedure: as §2, §3, §4, §5

A further data set has as its target T5, S1P-2 (Homo sapiens, UniProt O95136).
T5 construct: expressed in transfected cells; host or cells: HEK293 (transient, calcium phosphate); crude membranes
Described as above. The class given is biochemical. Particulars: transiently transfected HEK293 membranes. The procedure:
as §2, §3, §4, §5

Data set [1] is described as follows: Chiral HPLC determination of FTY720-phosphate enantiomers in blood after dosing 14C-labeled FTY720. The class given is in vivo. Particulars: rats, orally 7.5 mg/kg or intravenous infusion 4 mg/kg; blood e.g. 3 or 72 hours after dosing. From the text:
In a further aspect, the present invention provides a method of determining the amount of the R and/or S isomers of a compound of formula II present in a sample, comprising (a) reacting the compound of formula II present in the sample with benzene-1,2-dicarbaldehyde to form a compound of formula I, and separating the R and S isomers of the compound of formula I by HPLC. The HPLC is preferably performed as described above, using a chiral ion-exchange phase e.g. based on quinine carbamate or quinidine carbamate. The compounds of formula I are useful as intermediates in such a method. The sample may be e.g. a sample derived from a bodily fluid e.g. blood, plasma, saliva, or urine, and may be first subjected to one or more separation steps, (e.g. extraction with methanol and/or non-chiral HPLC) in order to separate the compound of formula II from the fluid. By such a method the amount of the active R or S enantiomer in the sample may be determined. […]
For example, achiral 14C-labeled FTY720 is administered to rats either orally (7.5 mg/kg) or by intravenous infusion (4 mg/kg). […] The derivative is spiked with unlabelled OPA-derivatized R and S FTY720-phosphate as retention time markers (monitored by UV at 215 nm) and subjected to chiral HPLC separation using a ProntoSIL Chiral AX QN-1 column.

Where [2] appears, read: GTPγS binding, transiently transfected HEK293 membranes.

T5 sequence (O95136 whole entry): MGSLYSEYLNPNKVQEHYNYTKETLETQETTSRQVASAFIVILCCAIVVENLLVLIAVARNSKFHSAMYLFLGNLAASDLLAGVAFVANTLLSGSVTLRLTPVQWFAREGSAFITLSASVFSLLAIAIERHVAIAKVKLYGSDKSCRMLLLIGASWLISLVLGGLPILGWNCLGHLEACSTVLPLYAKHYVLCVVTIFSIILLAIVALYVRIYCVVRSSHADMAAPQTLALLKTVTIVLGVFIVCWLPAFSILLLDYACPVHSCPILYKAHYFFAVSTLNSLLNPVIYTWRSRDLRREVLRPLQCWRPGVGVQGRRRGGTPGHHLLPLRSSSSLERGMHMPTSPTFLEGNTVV

At S1P-4, `CCCCCCCCc1ccc(CCC(N)(CO)COP(=O)(O)O)cc1` (single isomer, unassigned) [(R)-FTY720-P, phosphoric acid mono-[2-amino-2-hydroxymethyl-4-(4-octyl-phenyl)-butyl]ester] had an EC50 of 80.1 nM. Further, the “agonistic effects on S1P receptors” value in the data set on human S1P receptors is listed as “only at very high concentrations”.
Take `CCCCCCCCc1ccc(CCC(N)(CO)COP(=O)(O)O)cc1` (single isomer, unassigned) [(S)-FTY720-P, phosphoric acid mono-[2-amino-2-hydroxymethyl-4-(4-octyl-phenyl)-butyl]ester]: the “agonist character on S1P1” value on S1P-1 (in the low nanomolar range) is on record as “full agonist”. In addition, the “agonist character on S1P5” value at S1P-5 (in the low nanomolar range) is on record as “partial agonist”. Also, the “agonist character on S1P3” value at S1P-3 (in the low nanomolar range) is recorded as “full agonist”. Also, the EC50 at S1P-4 came to 0.75 nM. In addition, the “agonist character on S1P4” value on S1P-4 (in the low nanomolar range) is recorded as “partial agonist”.
Consider `N[C@@](CO)(CCc1ccc(OCCc2ccc(C(F)(F)F)cc2)cc1)COP(=O)(O)O` [Ex. 14, Phosphoric Acid mono-((R)-2-amino-2-hydroxymethyl-4-{4-[2-(4-trifluoromethyl-phenyl)-ethoxy]-phenyl}-butyl)ester], for which the EC50 at S1P-1 (setting [2]) was 0.4 nM; on S1P-5 (setting [2]) it was 7.7 nM; at S1P-2, more than 10000 nM; at S1P-3 (setting [2]), 140 nM; on S1P-4, 6.6 nM.
As to `CCCCCCCCc1ccc(CCC(N)(CO)CO)cc1` [FTY720, 2-amino-2-[2-(4-octylphenyl)ethyl]propane-1,3-diol], in data set [1], the “R-enantiomer of [14C]FTY720-phosphate in blood” value is on record as “not detectable” and the “enantiomer of the metabolite [14C]FTY720-phosphate in all blood samples” value is “exclusively the pharmacologically active S-enantiomer”.

(Values after patent US7902175B2, “Aminopropanol derivatives” (Novartis AG, priority 2003, dated 2011).)
